Reference: patent US6203976A, “Methods of preparing compositions comprising chemicals capable of transcriptional modulation” (OSI Pharmaceuticals, Inc., priority 1994, dated 2001)
Read-outs that look alike come from different tables or passages of the source.

Assays:
[1] = test system: MMTV (M10) promoter; assay: High-throughput luciferase reporter assay, MMTV promoter (Screen III); format: cell-based, mouse; details: M10 cells, 6 hours; for FOLD INHIBITION RELATIVE TO SOLVENT CONTROL, MMTV: Screen III inhibitors; for FOLD INDUCTION RELATIVE TO SOLVENT CONTROL, MMTV: Screen III activators
Description: pMluci and pSV2Neo, an antibiotic resistance plasmid (112), were co-transfected into NIH/3T3 mouse fibroblast cells using the calcium phosphate precipitation method (103) with a commercially available kit (Pharmacia, Piscataway N.J.). Two days later, cells were transferred to media containing 0.4 mg/ml G418 and were grown for an additional 10-14 days. G418-resistant clones were isolated by standard methods. Once sufficient cell numbers were obtained, clones were analyzed based on several criteria: constitutive luciferase production, induction of luciferase expression by dexamethasone (1 μm, Sigma, St. Louis, Mo.), satisfactory attachment to microtiter plates used in the high-throughput screen and acceptable standard deviation in multiple luciferase expression assays (see below for assay protocol). This analysis was carried out using the luciferase assay conditions described above. Of the clones which satisfied the above criteria for the high throuphput screen, one clone, M10, was selected for use.

[2] = test system: human G-CSF (G21) promoter; details: Screen III inhibitors; G21 cells; 6 hours
[3] = test system: human growth hormone (532) promoter; assay: High-throughput luciferase reporter assay, human Growth Hormone promoter (Screen III); format: cell-based; details: 532 cells, 6 hours; for FOLD INHIBITION RELATIVE TO SOLVENT CONTROL, hGH: Screen III inhibitors; for FOLD INDUCTION RELATIVE TO SOLVENT CONTROL, hGH: Screen III activators
[4] = test system: human G-CSF (G21) promoter; assay: High-throughput luciferase reporter assay, G-CSF promoter (Screen III); details: for FOLD INDUCTION RELATIVE TO SOLVENT CONTROL, GCSF: Screen III activators; for scored as positive in repeat assays, G-CSF: 48 independent luciferase assays performed on the same day
[5] = Screen III inhibitors, G21 cells, 6 hours

| Compound | FOLD INHIBITION RELATIVE TO SOLVENT CONTROL, MMTV [1] [fold] | FOLD INHIBITION RELATIVE TO SOLVENT CONTROL, hGH [3] [fold] | FOLD INDUCTION RELATIVE TO SOLVENT CONTROL, MMTV [1] [fold] | FOLD INDUCTION RELATIVE TO SOLVENT CONTROL, GCSF ([4]; G21 cells, 6 hours) [fold] | FOLD INDUCTION RELATIVE TO SOLVENT CONTROL, hGH [3] [fold] | also measured |
| --- | --- | --- | --- | --- | --- | --- |
| CCCCCCCCCCCCCCCCBr [compound 2037] | 0.50 | 4.00 |  |  |  | FOLD INHIBITION RELATIVE TO SOLVENT CONTROL, GCSF [2]: 0.51 fold |
| O=S(=O)(O)c1ccc2c(N=Nc3ccc(S(=O)(=O)O)c4ccccc34)c(O)c(S(=O)(=O)O)cc2c1 [compound 512] | 0.68 | 5.26 |  |  |  | FOLD INHIBITION RELATIVE TO SOLVENT CONTROL, GCSF [2]: 0.81 fold |
| Nc1nc2c(nc(Br)n2[C@@H]2O[C@H](CO)[C@@H](O)[C@H]2O)c(=O)[nH]1 [compound 2036] | 0.81 | 4.34 |  |  |  | FOLD INHIBITION RELATIVE TO SOLVENT CONTROL, GCSF [2]: 0.58 fold |
| CC1(C)[C@H]2CC[C@]1(C)[C@H](O)C2 [compound 1635] | 0.99 | 9.09 |  |  |  | FOLD INHIBITION RELATIVE TO SOLVENT CONTROL, GCSF [2]: 0.71 fold |
| Cc1cc(C)nc(NS(=O)(=O)c2ccc(N)cc2)n1 [compound 443] | 0.79 | 4.76 |  |  |  | FOLD INHIBITION RELATIVE TO SOLVENT CONTROL, GCSF [4, 5]: 0.60 fold |
| CN(C)c1ccc2cc3ccc(N(C)C)cc3nc2c1 [compound 80] |  |  | 0.83 | 5.87 | 0.66 |  |
| O=C1OC2(c3cc(I)c(O)c(I)c3Oc3c2cc(I)c(O)c3I)c2c(Cl)c(Cl)c(Cl)c(Cl)c21 [compound 792] |  |  | 1.21 | 0.94 | 5.31 |  |
| COc1c(F)cc(Br)cc1[N+](=O)[O-] [compound 2030] |  |  | 0.87 | 5.53 | 0.67 |  |
| CON(C)C(=O)Nc1ccc(Cl)cc1 [compound 552] |  |  | 0.86 | 0.81 | 5.31 |  |
| CCn1c(=O)[nH]c2ccccc21 [compound 322] |  |  | 1.12 | 0.60 | 11.18 |  |
| CC(=O)c1ccc[nH]1 [compound 70] |  |  | 0.85 | 0.43 | 9.26 |  |
| O=c1[nH]c(=O)n([C@H]2C[C@H](O)[C@@H](CO)O2)cc1Br [compound 543] |  |  | 0.98 | 7.17 | 0.72 |  |
| O=C(O)CC1NC(=O)NC1=O (centres unmarked) [compound 630] | 0.74 | 3.57 |  |  |  | FOLD INHIBITION RELATIVE TO SOLVENT CONTROL, GCSF [4, 5]: 0.70 fold |
| c1ncncn1 [compound 473] |  |  | 0.87 | > 3 | 0.50 |  |
| O=C(O)c1cc(C(F)(F)F)ccc1C(F)(F)F [compound 1655] | 0.81 | 4.76 |  |  |  | FOLD INHIBITION RELATIVE TO SOLVENT CONTROL, GCSF [4, 5]: 0.54 fold |
| Cc1cc(C2(c3cc(C)c(O)c(CN(CC(=O)O)CC(=O)O)c3)OC(=O)c3ccccc32)cc(CN(CC(=O)O)CC(=O)O)c1O [compound 1773] | 0.67 | 10.00 |  |  |  | FOLD INHIBITION RELATIVE TO SOLVENT CONTROL, GCSF [4, 5]: 0.62 fold |
| O=NN(O)c1ccccc1 [Chemical #1783, Cupferron] |  |  | 0.89 | 6.55 | 0.32 | scored as positive in repeat assays, G-CSF [4]: scored as positive only in half of the 48 repeat assays |
| O=P(O)(O)Oc1c[nH]c2ccc(Br)c(Cl)c12 [compound 541] | 0.86 | 6.25 |  |  |  | FOLD INHIBITION RELATIVE TO SOLVENT CONTROL, GCSF [4, 5]: 0.90 fold |
| N=c1ccc2nc3ccc(N)cc3sc-2c1 [compound 836] |  |  | 0.58 | 3.20 | 0.23 |  |
| CCOC(=O)c1c[nH]c(=S)[nH]c1=O [compound 1740] |  |  | 0.87 | 0.74 | 17.77 |  |

| Compound | FOLD INHIBITION RELATIVE TO SOLVENT CONTROL, MMTV [1] [fold] | FOLD INHIBITION RELATIVE TO SOLVENT CONTROL, hGH [3] [fold] | FOLD INDUCTION RELATIVE TO SOLVENT CONTROL, MMTV [1] [fold] | FOLD INDUCTION RELATIVE TO SOLVENT CONTROL, GCSF ([4]; G21 cells, 6 hours) [fold] | FOLD INDUCTION RELATIVE TO SOLVENT CONTROL, hGH [3] [fold] | also measured |
| --- | --- | --- | --- | --- | --- | --- |
| Nc1c(O)c(S(=O)(=O)O)c(O)c2c1C(=O)c1ccccc1C2=O [compound 640] | 0.59 | 5.00 |  |  |  | FOLD INHIBITION RELATIVE TO SOLVENT CONTROL, GCSF [4, 5]: 0.64 fold |
| CC1(C)[C@H]2CC[C@]1(C)C(=O)C2 [compound 1720] | 0.66 | 4.76 |  |  |  | FOLD INHIBITION RELATIVE TO SOLVENT CONTROL, GCSF [2]: 0.65 fold |
| Brc1ccc2c3c(cccc13)CC2 [compound 1573] |  |  | 4.30 | 1.49 | 0.34 |  |
| C1CCNCC1 [compound 759] | 0.95 | 5.88 |  |  |  | FOLD INHIBITION RELATIVE TO SOLVENT CONTROL, GCSF [4]: 0.64 |
| NC1=NCCS1 [compound 1552] |  |  | 0.52 | 1.23 | 7.26 |  |
| CC(=O)n1ccnc1 [Chemical #58, 1-Acetylimidazole] |  |  | 0.42 | 6.03 | 0.17 | scored as positive in repeat assays, G-CSF [4]: scored as positives in every single one of these assays |
| Clc1ccc(Sc2cc(Cl)c(Cl)cc2Cl)cc1 [compound 828] |  |  | 2.20 | 1.47 | 1.34 |  |
| Nc1ccc2c(c1)C(=O)c1ccccc1-2 [compound 1318] |  |  | 2.41 | 1.13 | 0.85 |  |
| CC(=O)OCC(=O)[C@@]1(O)CC[C@H]2[C@@H]3CCC4=CC(=O)C=C[C@]4(C)[C@H]3[C@@H](O)C[C@@]21C [compound 765] |  |  | 2.66 | 0.96 | 1.30 |  |
| COc1cc2oc(=O)cc(CBr)c2cc1OC [compound 2064] |  |  | 2.53 | 0.82 | 1.10 |  |
| CCOC(=O)N1C(=O)c2ccccc2C1=O [compound 237] |  |  | 0.62 | 4.77 | 0.06 |  |
| COC(=O)CP(=O)(OCC(F)(F)F)OCC(F)(F)F [compound 1651] | 0.70 | 3.57 |  |  |  | FOLD INHIBITION RELATIVE TO SOLVENT CONTROL, GCSF [4, 5]: 0.69 fold |
| O=C(O)c1ccc(Br)o1 [compound 2035] | 0.89 | 7.14 |  |  |  | FOLD INHIBITION RELATIVE TO SOLVENT CONTROL, GCSF [4, 5]: 0.57 fold |
| Nc1c2ccccc2nc2ccccc12 [compound 1904] |  |  | 0.82 | 4.12 | 0.54 |  |
| Cc1n[nH]c(C)c1Br [compound 2009] | 0.64 | 0.57 |  |  |  | FOLD INHIBITION RELATIVE TO SOLVENT CONTROL, GCSF [2]: 3.70 fold |
| Nc1nc2nc[nH]c2c(=S)[nH]1 [compound 1521] |  |  | 0.92 | 3.59 | 0.73 |  |
| Nc1nccs1 [compound 1550] |  |  | 0.87 | 0.04 | 5.44 |  |
| Brc1cccc(-c2ccccc2)c1 [compound 1994] |  |  | 0.63 | 3.29 | 0.34 |  |
| Cc1cc(=O)oc2cc(OCC(=O)O)ccc12 [compound 1764] | 0.82 | 7.14 |  |  |  | FOLD INHIBITION RELATIVE TO SOLVENT CONTROL, GCSF [4, 5]: 0.55 fold |
